In patent US5942489A, “HGH-RH(1-29)NH2 analogues having antagonistic activity” (The Administrators of the Tulane Educational Fund, priority 1996, dated 1999):
Where a SMILES comes first, the peptide text is derived from it. Bridges are numbered along the chain shown (N, C = ends). [ ]: non-standard residue; d: D form. The star is where a group is joined. Phe(4-Cl) = N[C@@H](Cc1ccc(Cl)cc1)C(=O)O; Agmatine = N=C(N)NCCCCN*; Nle = CCCC[C@H](N)C(=O)O; PhAc = O=C(Cc1ccccc1)*

Biological target: T1, rat pituitary GH-RH receptors (Rattus norvegicus, UniProt Q02644)
T1 construct: from tissue; host or cells: anterior pituitary of male Sprague-Dawley rats, crude membranes
T1 sequence (Q02644 23-464): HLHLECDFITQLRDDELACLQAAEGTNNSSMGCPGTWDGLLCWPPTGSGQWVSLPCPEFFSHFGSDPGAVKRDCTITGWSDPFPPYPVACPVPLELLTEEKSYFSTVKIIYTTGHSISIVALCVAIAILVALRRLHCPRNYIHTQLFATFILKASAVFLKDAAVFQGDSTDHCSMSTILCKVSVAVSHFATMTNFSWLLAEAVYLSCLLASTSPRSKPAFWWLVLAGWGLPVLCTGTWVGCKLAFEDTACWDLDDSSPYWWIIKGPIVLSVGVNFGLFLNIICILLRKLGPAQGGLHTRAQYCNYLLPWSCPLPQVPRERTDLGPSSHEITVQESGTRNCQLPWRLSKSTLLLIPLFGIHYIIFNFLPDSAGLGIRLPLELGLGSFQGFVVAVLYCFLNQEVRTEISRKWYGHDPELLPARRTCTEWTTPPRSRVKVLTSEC
Test: GH-RH radioreceptor binding assay, competition with labelled [His1,Nle27]hGH-RH(1-32)NH2
Settings: rat anterior pituitary membrane homogenates; read-out: Ki values, K
Protocol: GH-RH Binding Assay. A sensitive radioreceptor binding assay was developed to determine the binding characteristics of the antagonists of GH-RH (G. Halmos, A. V. Schally et al., Receptor 3, 87-97, 1993), hereby incorporated by reference. The assay is based on binding of labelled [His^1, Nle^27 ]hGH-RH(1-32)NH2 to rat anterior pituitary membrane homogenates. Iodinated derivatives of [His^1, Nle^27 ]hGH-RH(1-32)NH2 are prepared by the chloramine-T method (F. C. Greenwood et al., Biochemistry 89:114-123, 1963), hereby incorporated by reference. Pituitaries from male Sprague-Dawley rats (250-300 g) are used to prepare crude membranes. For saturation binding analyses, membrane homogenates are incubated with at least 6 concentrations of [His^1,125I-Tyr^10,Nle^27 ]hGH-RH(1-32)NH2, ranging from 0.005 to 0.35 nM in the presence or absence of excess unlabelled peptide (1 μM).
The pellet is counted for radioactivity in a γ-counter. The affinities of the antagonist peptides tested to rat pituitary GH-RH receptors are determined in competitive binding experiments. The final binding affinities are estimated by Ki (dissociation constant of the inhibitor-receptor complex) and are determined by the Ligand PC computer program of Munson and Rodbard as modified by McPherson. Relative affinities compared to [Ac-Tyr^1, D-Arg^2 ]hGH-RH(1-29)NH2, the Standard antagonist, are calculated as the ratio of Ki of the tested GH-RH antagonist to the Ki of the Standard antagonist.

| Ki [nM] | SMILES |
| --- | --- |
| 0.096 | CCCC[C@H](NC(=O)[C@@H](NC(=O)[C@H](CC(=O)O)NC(=O)[C@H](CCC(N)=O)NC(=O)[C@H](CC(C)C)NC(=O)[C@H](CC(C)C)NC(=O)[C@H](CCCCN)NC(=O)[C@H](CCCNC(=N)N)NC(=O)[C@H](C)NC(=O)[C@H](CO)NC(=O)[C@H](CC(C)C)NC(=O)[C@H](CCC(N)=O)NC(=O)[C@H](C)NC(=O)[C@H](CC(C)C)NC(=O)[C@@H](NC(=O)[C@H](CCCCN)NC(=O)[C@H](CCCNC(=N)N)NC(=O)[C@H](Cc1ccc(O)cc1)NC(=O)[C@H](CO)NC(=O)[C@H](CC(N)=O)NC(=O)[C@@H](NC(=O)[C@H](Cc1ccc(Cl)cc1)NC(=O)[C@@H](NC(=O)[C@H](C)NC(=O)[C@H](CC(=O)O)NC(=O)[C@@H](CCCNC(=N)N)NC(=O)[C@H](Cc1ccc(O)cc1)NC(=O)Cc1ccccc1)[C@@H](C)CC)[C@@H](C)O)C(C)C)[C@@H](C)CC)C(=O)N[C@@H](CC(=O)O)C(=O)NCCCCNC(=N)N [Peptide 5, [PhAc^0,D-Arg^2,Phe(pCl)^6,Ala^15,Nle^27,Asp^28]hGH-RH(1-28)Agm] (PhAc-Y[dR]DAI[Phe(4-Cl)]TNSYRKVLAQLSARKLLQDI[Nle]D-Agmatine) |
| 0.456 | CCCC[C@H](NC(=O)[C@@H](NC(=O)[C@@H]1CCC(=O)NCCCC[C@H](NC(=O)[C@H](CCCNC(=N)N)NC(=O)[C@H](C)NC(=O)[C@H](CO)NC(=O)[C@H](CC(C)C)NC(=O)[C@H](CCC(N)=O)NC(=O)[C@H](C)NC(=O)[C@H](CC(C)C)NC(=O)[C@@H](NC(=O)[C@H]2CCCCNC(=O)CC[C@H](NC(=O)[C@@H](NC(=O)[C@H](Cc3ccc(Cl)cc3)NC(=O)[C@@H](NC(=O)[C@H](C)NC(=O)[C@H](CC(=O)O)NC(=O)[C@@H](CCCNC(=N)N)NC(=O)[C@H](Cc3ccc(O)cc3)NC(=O)Cc3ccccc3)[C@@H](C)CC)[C@@H](C)O)C(=O)N[C@@H](CO)C(=O)N[C@@H](Cc3ccc(O)cc3)C(=O)N[C@@H](CCCNC(=N)N)C(=O)N2)C(C)C)C(=O)N[C@@H](CC(C)C)C(=O)N[C@@H](CC(C)C)C(=O)N[C@@H](CCC(N)=O)C(=O)N1)[C@@H](C)CC)C(=O)N[C@@H](CO)C(=O)N[C@@H](CCCNC(=N)N)C(N)=O [Peptide 23, cyclo^8,12; 21,25 [[PhAc^0,D-Arg^2,Phe(pCl)^6,Glu^8,25,D-Lys^12,Ala^15,Nle^27]hGH-RH(1-29)-NH2] (PhAc-Y[dR]DAI[Phe(4-Cl)]TESYR[dK]VLAQLSARKLLQEI[Nle]SR-NH2; lactam 8-12, 21-25) |
| 0.159 ± 0.04 | CCCC[C@H](NC(=O)[C@@H](NC(=O)[C@H](CC(=O)O)NC(=O)[C@H](CCC(N)=O)NC(=O)[C@H](CC(C)C)NC(=O)[C@H](CC(C)C)NC(=O)[C@@H]1CCCCNC(=O)CC[C@H](NC(=O)[C@H](CCC(N)=O)NC(=O)[C@H](C)NC(=O)[C@H](CC(C)C)NC(=O)[C@@H](NC(=O)[C@H](CCCCN)NC(=O)[C@H](CCCNC(=N)N)NC(=O)[C@H](Cc2ccc(O)cc2)NC(=O)[C@H](CO)NC(=O)[C@H](CO)NC(=O)[C@@H](NC(=O)[C@H](Cc2ccc(Cl)cc2)NC(=O)[C@@H](NC(=O)[C@H](C)NC(=O)[C@H](CC(=O)O)NC(=O)[C@@H](CCCNC(=N)N)NC(=O)[C@H](Cc2ccc(O)cc2)NC(=O)Cc2ccccc2)[C@@H](C)CC)[C@@H](C)O)C(C)C)C(=O)N[C@@H](CO)C(=O)N[C@@H](C)C(=O)N[C@@H](CCCNC(=N)N)C(=O)N1)[C@@H](C)CC)C(=O)N[C@@H](CO)C(=O)N[C@@H](CCCNC(=N)N)C(N)=O [Peptide 18, cyclo^17,21 [PhAc^0,D-Arg^2,Phe(pCl)^6,Ser^8,Ala^15,Glu^17,Nle^27]hGH-RH(1-29)NH2] (PhAc-Y[dR]DAI[Phe(4-Cl)]TSSYRKVLAQESARKLLQDI[Nle]SR-NH2; lactam 17-21) |
